In patent US7504400B2, “MTP inhibiting aryl piperydines or piperazines substituted with 5-membered heterocycles” (Janssen Pharmaceutica N.V., priority 2004, dated 2009):

Tested on: Secretion of ApoB
Assay: Quantification of the secretion of ApoB in HepG2 cells
Format: cell-based
Settings: Homo sapiens, HepG2, 24 h, 24 hours of incubation with test compound, immunoprecipitation of apoB from medium, read-out: pIC50 value (=-log IC50 value), secretion of ApoB (converted)
Description: HepG2 cells were cultured in 24-well plates in MEM Rega 3 containing 10% fetal calf serum. At 70% confluency, the medium was changed and the test compound or carrier (DMSO, 0.4% final concentration) was added. After 24 hours of incubation, the medium was transferred to Eppendorf tubes and cleared by centrifugation. A sheep antibody directed against either apoB was added to the supernatant and the mixture was kept at 8° C. for 24 hours. Then, rabbit anti-sheep antibody was added and the immune complex was allowed to precipitate for 24 hours at 8° C. The immunoprecipitate was pelleted by centrifugation for 25 minutes at 1320 g and washed twice with a buffer containing 40 mM Mops, 40 mM NaH2PO4, 100 mM NaF, 0.2 mM DTT, 5 mM EDTA, 5 mM EGTA, 1% Triton-X-100, 0.5% sodium deoxycholate (DOC), 0.1% SDS, 0.2 μM leupeptin and 0.2 μM PMSF. Radioactivity in the pellet was quantified by liquid scintillation-counting. The IC50 values are usually converted to pIC50 values (=−log IC50 value) for ease of use.

IC50	SMILES
316 to 3160 nM	COC(=O)C(c1ccc(Cl)cc1)N1CCN(c2ccc(-n3cnn(C(C)C)c3=O)cc2)CC1 (stereo not shown) [Compound 327]
316 to 3160 nM	CCOC(=O)C(C)NC(=O)CC1CCN(c2ccc(-n3cnn(C(C)c4ccccc4)c3=O)cc2)CC1 (stereo not shown) [Compound 403]
31.6 to 316 nM	CCOC(=O)c1cc(NC(=O)CC2CCN(c3ccc(-n4cnn(C(C)c5ccccc5)c4=O)cc3)CC2)ccc1C (stereo not shown) [Compound 371]
31.6 to 316 nM	CCOC(=O)[C@H](NC(=O)CC1CCN(c2ccc(-n3cnn(C(C)c4ccccc4)c3=O)cc2)CC1)c1ccccc1 (stereo partly shown) [Compound 394]
316 to 3160 nM	CCOC(=O)CC(NC(=O)CC1CCN(c2ccc(-n3cnn(C(C)c4ccccc4)c3=O)cc2)CC1)c1ccc2c(c1)OCO2 (stereo not shown) [Compound 404]
316 to 3160 nM	CCOC(=O)C(c1ccccc1)N1CCN(c2ccc(-n3cnn(C(C)c4ccc(F)cc4)c3=O)cc2)CC1 (stereo not shown) [Compound 266]
< 31.6 nM	CCOC(=O)c1cc(NC(=O)C(c2ccccc2)N2CCC(c3ccc(-n4cnn(C(C)C)c4=O)cc3)CC2)ccc1C (stereo not shown) [Compound 349]
316 to 3160 nM	CCOC(=O)c1cc(NC(=O)CC2CCN(c3ccc(-n4cnn(C(C)C)c4=O)cc3)CC2)ccc1C [Compound 372]
316 to 3160 nM	CCOC(=O)[C@@H](c1ccccc1)N1CCN(c2ccc(-n3ccn([C@H](C)c4ccc(F)cc4)c3=O)cc2)CC1 (relative stereo) [Compound 273]
31.6 to 316 nM	CCOC(=O)c1cc(CNC(=O)CC2CCN(c3ccc(-n4cnn(C(C)C)c4=O)cc3)CC2)ccc1C [Compound 382]
316 to 3160 nM	CCOC(=O)CC[C@H](NC(=O)CC1CCN(c2ccc(-n3cnn(C(C)c4ccccc4)c3=O)cc2)CC1)C(=O)OCC (stereo partly shown) [Compound 397]
316 to 3160 nM	CCOC(=O)[C@H](c1ccccc1)N1CCN(c2ccc(-n3ccn([C@@H](C)c4ccccc4F)c3=O)cc2)CC1 (relative stereo) [Compound 272]
316 to 3160 nM	CCOC(=O)CC(NC(=O)C(c1ccccc1)N1CCN(c2ccc(N3CCN(C(C)C)C3=O)cc2)CC1)c1ccc2c(c1)OCO2 (stereo not shown) [Compound 359]
316 to 3160 nM	CCOC(=O)[C@@H](c1ccccc1)N1CCN(c2ccc(-n3cnn([C@H](C)c4ccccc4)c3=O)cc2)CC1 (stereo in doubt) [Compound 280]
31.6 to 316 nM	COC(=O)C(c1ccccc1Cl)N1CCN(c2ccc(-n3cnn(C(C)C)c3=O)cc2)CC1 (stereo not shown) [Compound 325]
31.6 to 316 nM	CCOC(=O)C(c1ccccc1)N1CCN(c2ccc(-n3ccn([C@H](C)c4ccccc4)c3=O)c(C)c2)CC1 (stereo partly shown) [Compound 297]
31.6 to 316 nM	CC(C)n1ncn(-c2ccc(N3CCN(C(C(=O)Nc4ccc5c(c4)CCN(C(=O)OC(C)(C)C)C5)c4ccccc4)CC3)cc2)c1=O (stereo not shown) [Compound 305]
316 to 3160 nM	COC(=O)c1ccc2nc(NC(=O)C(c3ccccc3)N3CCC(c4ccc(-n5cnn(C(C)C)c5=O)cc4)CC3)sc2c1 (stereo not shown) [Compound 354]
< 31.6 nM	COC(=O)c1cc(NC(=O)C(c2ccccc2)N2CCN(c3ccc(-n4cnn(C(C)c5ccccc5)c4=O)cc3)CC2)ccc1C (stereo not shown) [Compound 283]

More lines, now with the values behind:

SMILES	IC50
CCOC(=O)C(c1ccccc1)C1CCN(c2ccc(-n3ccn([C@H](C)c4cccc5ccccc45)c3=O)cc2)CC1 (stereo partly shown) [Compound 245]	316 to 3160 nM
Cc1nn(C(C)C)c(=O)n1-c1ccc(N2CCN(C(C(=O)NCc3ccccc3)c3ccccc3)CC2)cc1 (stereo not shown) [Compound 86]	316 to 3160 nM
CCCCNC(=O)C(c1ccccc1)N1CCN(c2ccc(-n3cnn(C(C)C)c3=O)cn2)CC1 (stereo not shown) [Compound 42]	316 to 3160 nM
COc1cccc(NC(=O)C(c2ccccc2)N2CCN(c3ccc(-n4cnn(C(C)C)c4=O)cc3)CC2)c1 (stereo not shown) [Compound 61]	31.6 to 316 nM
CCNC(=O)C(CN1CCN(c2ccc(-n3cnn(C(C)C)c3=O)cc2)CC1)c1ccccc1 (stereo not shown) [Compound 101]	31.6 to 316 nM
CCCCn1ncn(-c2ccc(N3CCC(C(C(=O)NCc4ccccc4)c4ccccc4)CC3)cc2)c1=O (stereo not shown) [Compound 156]	31.6 to 316 nM
CCOC(=O)C(c1ccccc1)N1CCC(c2ccc(-n3ccn([C@@H](C)c4ccc(C)cc4)c3=O)cc2)CC1 (stereo partly shown) [Compound 234]	316 to 3160 nM
CC(C)n1ncn(-c2ccc(N3CCN(C(C(=O)Nc4cccc5cccnc45)c4ccccc4)CC3)cc2)c1=O (stereo not shown) [Compound 15]	316 to 3160 nM
CC(C)n1ncn(-c2ccc(N3CCN(C(C(=O)NCC(C)(c4ccccc4)c4ccccc4)c4ccccc4)CC3)cc2)c1=O (stereo not shown) [Compound 68]	316 to 3160 nM
Cc1ccc(NC(=O)C(c2ccccc2)N2CCN(c3ccc(-n4cnn(C(C)C)c4=O)cc3)CC2)c(C)c1 (stereo not shown) [Compound 59]	31.6 to 316 nM
CC(C)n1ncn(-c2ccc(N3CCN(C(C(=O)Nc4ccc5c(c4)nc(-c4ccccc4)n5C)c4ccccc4)CC3)cc2)c1=O (stereo not shown) [Compound 199]	316 to 3160 nM
CC(C)n1ncn(-c2ccc(N3CCN(C(C(=O)NCc4ccco4)c4ccccc4)CC3)cc2)c1=O (stereo not shown) [Compound 65]	316 to 3160 nM
CCCNC(=O)C(c1ccccc1)C1CCN(c2ccc(-n3cnn(Cc4ccccc4)c3=O)cc2)CC1 (stereo not shown) [Compound 155]	31.6 to 316 nM
COCCNC(=O)C(CN1CCN(c2ccc(-n3cnn(C(C)C)c3=O)cc2)CC1)c1ccccc1 (stereo not shown) [Compound 105]	316 to 3160 nM
CC(C)n1ncn(-c2ccc(N3CCN(C(C(=O)NC4CC4)c4ccccc4)CC3)cc2)c1=O (stereo not shown) [Compound 81]	316 to 3160 nM
CC(C)n1cnn(-c2ccc(N3CCN(C(C(=O)Nc4ccc5c(c4)CCC5)c4ccccc4)CC3)cc2)c1=O (stereo not shown) [Compound 191]	31.6 to 316 nM
CCOC(=O)C(c1ccccc1)N1CCC(c2ccc(-n3ccn([C@@H](C)C4CCCCC4)c3=O)cc2)CC1 (stereo partly shown) [Compound 241]	316 to 3160 nM
CCC(C)n1ncn(-c2ccc(N3CCN(C(C(=O)NCCC#N)c4ccccc4)CC3)cc2)c1=O (stereo not shown) [Compound 110]	31.6 to 316 nM
CCNC(=O)C(CCN1CCN(c2ccc(-n3cnn(C(C)C)c3=O)cc2)CC1)c1ccccc1 (stereo not shown) [Compound 161]	316 to 3160 nM
CC(C)n1ncn(-c2ccc(N3CCN(C(C(=O)Nc4ccccc4)c4ccccc4)CC3)nc2)c1=O (stereo not shown) [Compound 37]	316 to 3160 nM
CCOC(=O)C(c1ccccc1)N1CCC(c2ccc(-n3ccn([C@H](C)c4ccc(Br)cc4)c3=O)cc2)CC1 (stereo partly shown) [Compound 229]	31.6 to 316 nM
CCCNC(=O)C(c1ccccc1)C1CCN(c2ccc(-n3cnn(C(C)C)c3=O)cc2)CC1 (stereo not shown) [Compound 99]	31.6 to 316 nM
CC(C)n1ncn(-c2ccc(N3CCN(CCCC(C(=O)Nc4ccccc4)c4ccccc4)CC3)cc2)c1=O (stereo not shown) [Compound 160]	316 to 3160 nM

SMILES	IC50
COC(=O)C(c1ccccc1)N1CCN(c2ccc(-n3ncn(C(C)C)c3=O)cc2)CC1 (stereo not shown) [Compound 36]	316 to 3160 nM
Cn1ncn(-c2ccc(N3CCC(C(C(=O)NCc4ccccc4)c4ccccc4)CC3)cc2)c1=O (stereo not shown) [Compound 167]	316 to 3160 nM
CCC(C)n1ncn(-c2ccc(N3CCN(C(C(=O)OC)c4ccccc4)CC3)cc2)c1=O (stereo not shown) [Compound 174]	31.6 to 316 nM
COC(=O)c1ccc(CNC(=O)C(c2ccccc2)N2CCN(c3ccc(-n4cnn(C(C)C)c4=O)cc3)CC2)cc1 (stereo not shown) [Compound 196]	316 to 3160 nM
CC(C)n1ncn(-c2ccc(N3CCN(C(C(=O)NCC(F)(F)F)c4ccccc4)CC3)nc2)c1=O (stereo not shown) [Compound 170]	316 to 3160 nM
CC(C)n1ncn(-c2ccc(N3CCN(C(C(=O)Nc4ccc5c(c4)NCC5)c4ccccc4)CC3)cc2)c1=O (stereo not shown) [Compound 201]	31.6 to 316 nM
Cc1cc(C)cc(NC(=O)C(c2ccccc2)N2CCN(c3ccc(-n4cnn(C(C)C)c4=O)cc3)CC2)c1 (stereo not shown) [Compound 60]	31.6 to 316 nM
CCNC(=O)C(c1ccccc1)N1CCN(c2ccc(-n3cnn(C(C)C)c3=O)cn2)CC1 (stereo not shown) [Compound 46]	316 to 3160 nM
O=C(Nc1ccc2c(c1)CCC2)C(c1ccccc1)C1CCN(c2ccc(-n3nc4ccccn4c3=O)cc2)CC1 (stereo not shown) [Compound 211]	< 31.6 nM
CCOC(=O)C(c1ccccc1)N1CCC(c2ccc(-n3ccn([C@@H](COC)c4ccccc4)c3=O)cc2)CC1 (stereo partly shown) [Compound 240]	316 to 3160 nM
CCCNC(=O)C(CN1CCN(c2ccc(-n3cnn(C(C)C)c3=O)cc2)CC1)c1ccccc1 (stereo not shown) [Compound 128]	31.6 to 316 nM
CCCNC(=O)C(c1ccccc1)C1CCN(c2ccc(-n3cnn(CC4CC4)c3=O)cc2)CC1 (stereo not shown) [Compound 154]	31.6 to 316 nM
CCOC(=O)C(c1ccccc1)N1CCC(c2ccc(-n3ccn([C@H](C)c4ccc5ccccc5c4)c3=O)cc2)CC1 (stereo partly shown) [Compound 232]	31.6 to 316 nM
CCOC(=O)C(c1ccccc1)N1CCC(c2ccc(-n3ccn([C@@H](C)c4ccc(Cl)cc4)c3=O)cc2)CC1 (stereo partly shown) [Compound 236]	316 to 3160 nM
C=CCNC(=O)C(CN1CCN(c2ccc(-n3cnn(C(C)C)c3=O)cc2)CC1)c1ccccc1 (stereo not shown) [Compound 103]	31.6 to 316 nM
C=CCNC(=O)C(c1ccccc1)N1CCN(c2ccc(-n3cnn(C(C)CC)c3=O)cc2)CC1 (stereo not shown) [Compound 95]	31.6 to 316 nM
CC(C)n1ncn(-c2ccc(N3CCN(C(C(=O)NCC(F)(F)F)c4ccccc4)CC3)cc2)c1=O (stereo not shown) [Compound 166]	316 to 3160 nM
CC(C)n1ncn(-c2ccc(N3CCN(C(C(=O)NCc4c(F)cccc4F)c4ccccc4)CC3)cc2)c1=O (stereo not shown) [Compound 79]	316 to 3160 nM
COC(=O)C(c1ccccc1)N1CCN(c2ccc(-n3nc(C)n(C(C)C)c3=O)cc2)CC1 (stereo not shown) [Compound 159]	316 to 3160 nM
CC(C)n1ncn(-c2ccc(N3CCN(C(C(=O)Nc4cccc(C(F)(F)F)c4)c4ccccc4)CC3)cc2)c1=O (stereo not shown) [Compound 58]	31.6 to 316 nM
CNC(=O)C(c1ccccc1)N1CCN(c2ccc(-n3cnn(C(C)C)c3=O)cn2)CC1 (stereo not shown) [Compound 18]	316 to 3160 nM
CCOC(=O)C(c1ccccc1)C1CCN(c2ccc(-n3ccn([C@@H](C)c4ccc(F)cc4)c3=O)cc2)CC1 (stereo partly shown) [Compound 243]	316 to 3160 nM
